In patent US6346541B1, “Cyanoguanidines as cell proliferation inhibitors” (Leo Pharmaceutical Products Ltd. A/S, priority 1997, dated 2002):

Legend:
Type in all cases: cell-based
[1] = tested on: human small cell lung carcinoma (NYH) cell line; assay: Inhibition of tumour cell proliferation in vitro ([3H]thymidine incorporation), NYH; details: NYH cells, cultured 24 hours with compound, DNA synthesis by [3H]thymidine incorporation
Protocol: (§1) The inhibition of tumour cell proliferation was studied using different types of human cancer cell lines. The cell lines under investigation were small cell lung carcinoma (NYH), non small cell lung carcinoma (NCI-H460), and breast cancer (MCF-7) using the following general procedure:
(§2) The cells were cultured in vitro for 24 hours in the presence of the compound under investigation. DNA synthesis was measured by incorporation of [3H]thymidine, and the median inhibitory concentrations (IC50) of the compounds were calculated.

[2] = tested on: human breast cancer (MCF-7) cell line; assay: Inhibition of tumour cell proliferation in vitro ([3H]thymidine incorporation), MCF-7; details: MCF7, MCF-7 cells, cultured 24 hours with compound, DNA synthesis by [3H]thymidine incorporation
Protocol: as §1, §2

[3] = tested on: human non small cell lung cancer (NCI-H460) cell line; assay: Inhibition of tumour cell proliferation in vitro ([3H]thymidine incorporation), NCI-H460; details: NCI-H460 cells, cultured 24 hours with compound, DNA synthesis by [3H]thymidine incorporation
Protocol: as §1, §2

| IC50 [1] | IC50 [2] | IC50 [3] | SMILES |
| --- | --- | --- | --- |
| 1.7 nM | 2.2 nM | – | N#CNC(=Nc1ccncc1)NCCCCCCOC(=O)c1ccc(Cl)cc1 [Example No. 4, N-(6-(4-Chlorobenzoyloxy)hexyl)-N′-cyano-N″-4-pyridylguanidine] |
| 6.2 nM | 57 nM | 66 nM | N#CNC(=Nc1ccncc1)NCCCCCCNC(=O)c1ccccc1 [Example No. 2, N-(6-Benzoylaminohexyl)-N′-cyano-N″-4-pyridylguanidine] |
